US7781477B2, “Therapeutic use of N-(1H-Indolyl)-1H-indole-2-carboxamide derivatives” (Sanofi-Aventis, priority 2004, dated 2010)

Columns and labels:
TRPV1 receptors = target: T1, TRPV1 receptors (Mus musculus, UniProt Q704Y3); experiment: Mouse corneal irritation test (capsaicin ocular instillation); assay type: in vivo; details: percentage of protection against rubbing of the eye induced by 2 μl of 160 μM capsaicin, pretreatment time 1 h
T1 construct: from tissue; host or cells: living mouse, cornea (C fibers)
Experimental: Mouse Corneal Irritation Test
The irritating nature of capsaicin is easily assessed on the cornea since this organ is one of the most innervated by C fibers. In this context, according to preliminary experiments, the application of a very small amount of capsaicin (2 μl at a concentration of 160 μM) at the surface of the cornea of an animal results in a number of kinds of stereotyped behavior related to irritation which are easy to record. These include: blinking of the eye, rubbing of the instilled eye by the ipsilateral front paw, rubbing of the face with the two front paws and scratching of the ipsilateral face by the hind paw. […] Its appearance is furthermore also normal. […] It may be concluded therefrom that the duration of action of capsaicin at these doses is less than 2 minutes. […]
In practice, the test product is administered orally and, with a delay (pretreatment time: t) which depends on the pharmacokinetic data, the animal receives the ocular instillation of 2 μl of a 160 μM capsaicin solution prepared as indicated above. During observation for 2 minutes following the instillation, the number of rubbing actions on the instilled eye by the ipsilateral front paw is recorded.
For a given animal, the percentage of protection is calculated as follows: P=100−((number of scratching actions observed/mean number of scratching actions of the group treated with the solvent)×100). […]

TRPV1 receptor = target: T2, TRPV1 receptor (Rattus norvegicus, UniProt O35433); experiment: Inhibition of the current induced by capsaicin with regard to rat DRGs (whole cell patch clamp); assay type: cell-based; details: DRG neuron; % inhibition of the control capsaicin (300 nM) response; compound at 10 nM; primary culture of newborn rat DRG neurons; read-out: % Inhibition by the DRG patch technique
T2 construct: The neurons of the DRG naturally express the TRPV1 receptor; endogenous in cells; host or cells: primary culture of newborn rat dorsal root ganglion (DRG) neurons
Experimental: Test of the Inhibition of the Current Induced by Capsaicin with Regard to Rat DRGs
Primary Culture of Rat Dorsal Route Ganglion (DRG) Cells:
The neurons of the DRG naturally express the TRPV1 receptor.
Primary cultures of DRGs of newborn rats are prepared from 1-day-old rats. Briefly, after dissection, the ganglions are trypsinized and their cells dissociated mechanically by gentle trituration. […]
The measurement chambers (volume 800 μl) comprising the cell preparation are placed on the stage of an inverted microscope (Olympus IMT2) equipped with Hoffman optics (Modulation Contrast, New York) and are observed at a magnification of 400×. […] The overall currents (membrane potential set at −60 mV) are recorded with an Axopatch 1D amplifier (Axon Instruments, Foster City, Calif.) connected to a PC controlled by Pclamp8 software (Axon Instruments). The current plots are recorded on paper and simultaneously recorded digitally (sampling frequency 15 to 25 Hz) and acquired on the hard disk of the PC.
The application of a 300 nM capsaicin solution produces an incoming cationic current with regard to the DRG cells (voltage set at −70 mV). […] The results are expressed as % of inhibition of the control capsaicin response.

T1 sequence (Q704Y3 whole entry): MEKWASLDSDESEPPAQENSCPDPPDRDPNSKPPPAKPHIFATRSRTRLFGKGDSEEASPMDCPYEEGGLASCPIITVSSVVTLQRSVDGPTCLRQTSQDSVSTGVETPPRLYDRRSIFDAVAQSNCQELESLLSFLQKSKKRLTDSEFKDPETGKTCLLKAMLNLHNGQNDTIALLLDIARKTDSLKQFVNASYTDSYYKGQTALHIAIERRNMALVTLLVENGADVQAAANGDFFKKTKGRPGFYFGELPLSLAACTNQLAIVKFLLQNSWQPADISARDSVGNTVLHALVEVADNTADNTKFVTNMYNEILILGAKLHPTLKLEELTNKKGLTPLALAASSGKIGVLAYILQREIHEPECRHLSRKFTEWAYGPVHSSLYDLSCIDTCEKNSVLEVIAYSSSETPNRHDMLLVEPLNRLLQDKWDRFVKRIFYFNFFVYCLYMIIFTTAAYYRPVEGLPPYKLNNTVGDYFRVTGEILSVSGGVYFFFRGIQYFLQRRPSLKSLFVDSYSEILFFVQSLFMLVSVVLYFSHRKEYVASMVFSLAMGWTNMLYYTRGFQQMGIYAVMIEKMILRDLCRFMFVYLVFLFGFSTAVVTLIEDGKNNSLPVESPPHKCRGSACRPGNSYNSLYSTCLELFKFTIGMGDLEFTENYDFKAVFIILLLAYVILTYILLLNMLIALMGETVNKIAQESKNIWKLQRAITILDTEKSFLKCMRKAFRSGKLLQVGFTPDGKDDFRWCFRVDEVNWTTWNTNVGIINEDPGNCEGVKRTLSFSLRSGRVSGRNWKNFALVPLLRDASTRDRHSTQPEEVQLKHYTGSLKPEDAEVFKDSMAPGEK
T2 sequence (O35433 whole entry): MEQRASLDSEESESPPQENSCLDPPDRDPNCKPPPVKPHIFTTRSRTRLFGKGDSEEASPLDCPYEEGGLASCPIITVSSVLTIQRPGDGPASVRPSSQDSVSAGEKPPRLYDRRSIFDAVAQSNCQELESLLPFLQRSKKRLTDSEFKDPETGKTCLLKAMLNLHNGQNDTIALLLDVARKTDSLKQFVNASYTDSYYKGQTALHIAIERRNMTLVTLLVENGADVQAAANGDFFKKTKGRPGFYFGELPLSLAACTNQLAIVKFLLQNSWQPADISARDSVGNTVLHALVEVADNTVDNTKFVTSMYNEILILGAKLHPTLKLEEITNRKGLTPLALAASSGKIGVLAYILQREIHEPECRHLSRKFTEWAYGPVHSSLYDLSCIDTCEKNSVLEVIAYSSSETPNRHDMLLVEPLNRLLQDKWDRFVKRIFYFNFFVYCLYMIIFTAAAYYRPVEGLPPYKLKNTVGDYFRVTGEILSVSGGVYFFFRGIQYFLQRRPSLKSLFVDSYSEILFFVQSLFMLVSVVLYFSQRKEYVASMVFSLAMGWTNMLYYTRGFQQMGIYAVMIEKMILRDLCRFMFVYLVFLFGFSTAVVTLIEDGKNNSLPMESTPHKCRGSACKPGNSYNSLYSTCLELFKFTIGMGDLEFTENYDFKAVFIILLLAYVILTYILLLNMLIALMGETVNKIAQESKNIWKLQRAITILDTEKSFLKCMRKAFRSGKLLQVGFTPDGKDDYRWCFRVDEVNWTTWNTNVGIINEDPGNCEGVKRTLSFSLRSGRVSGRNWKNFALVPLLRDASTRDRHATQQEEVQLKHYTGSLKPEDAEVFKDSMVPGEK

Cn1ccc2cc(NC(=O)c3cc4ccccc4n3Cc3cccc(C(F)(F)F)c3)ccc21 [Compound No. 1, N-(1-Methyl-1H-indol-5-yl)-1-(3-trifluoromethylbenzyl)-1H-indole-2-carboxamide]
% P - (t) at 60 mg/kg (p.o.) - (n = 8) (TRPV1 receptors): 26% - (1 h) | inhibition at 0.01 µM (TRPV1 receptor): 56%
